Holding throughout (assay type): cell-based
The test system of assay [1] is Mycosphaerella graminicola (Septoria tritici). The assay is described as follows: Mycosphaerella graminicola (Septoria tritici) / liquid culture (Septoria blotch). To be noted: Zymoseptoria tritici, PDB potato dextrose broth, 24° C., 4-5 days after application, read-out: control of Mycosphaerella graminicola (inhibition of growth, photometric). The procedure: Example B15: Mycosphaerella graminicola (Septoria tritici)/Liquid Culture (Septoria Blotch) Conidia of the fungus from cryogenic storage are directly mixed into nutrient broth (PDB potato dextrose broth). After placing a (DMSO) solution of test compound into a microtiter plate (96-well format), the nutrient broth containing the fungal spores is added. The test plates are incubated at 24° C. and the inhibition of growth is determined photometrically 4-5 days after application. […] […]-191.

For assay [2], the system named is Glomerella lagenarium (Colletotrichum lagenarium). The assay is described as follows: Glomerella lagenarium (Colletotrichum lagenarium) / liquid culture (anthracnose). To be noted: Colletotrichum orbiculare, PDB potato dextrose broth, 24° C., 3-4 days after application, read-out: control of Glomerella lagenarium (inhibition of growth, photometric). The procedure:
Example B3: Glomerella lagenarium (Colletotrichum lagenarium)/Liquid Culture (Anthracnose) Conidia of the fungus from cryogenic storage are directly mixed into nutrient broth (PDB potato dextrose broth). After placing a (DMSO) solution of test compound into a microtiter plate (96-well format), the nutrient broth containing the fungal spores is added. The test plates are incubated at 24° C. and the inhibition of growth is measured photometrically 3-4 days after application. […] […]-191.

For assay [3], the system named is Monographella nivalis (Microdochium nivale). The assay is described as follows: Monographella nivalis (Microdochium nivale) / liquid culture (foot rot cereals). The following applies: PDB potato dextrose broth, 24° C., 4-5 days after application, read-out: control of Monographella nivalis (inhibition of growth, photometric). The method, then:
Example B7: Monographella nivalis (Microdochium nivale)/Liquid Culture (Foot Rot Cereals) Conidia of the fungus from cryogenic storage are directly mixed into nutrient broth (PDB potato dextrose broth). After placing a (DMSO) solution of test compound into a microtiter plate (96-well format), the nutrient broth containing the fungal spores is added. The test plates are incubated at 24° C. and the inhibition of growth is determined photometrically 4-5 days after application. […] […]-190.

For `COc1ccc(NC2CCC2)nc1C(=O)NCC(C)(C)C` [Compound P-41, 6-(cyclobutylamino)-N-(2,2-dimethylpropyl)-3-methoxy-pyridine-2-carboxamide], the inhibition (commonly how much of the control response was suppressed) at 20 ppm in assay [1] is not below 80%. Consider `COc1ccc(Nc2cnsc2)nc1C(=O)NCCc1ccc(OC(F)(F)F)cc1` [Compound P-85, 6-(isothiazol-4-ylamino)-3-methoxy-N-[2-[4-(trifluoromethoxy)phenyl]ethyl]pyridine-2-carboxamide], for which the inhibition at 20 ppm in assay [2] was not below 80%. As to `CC1(C)CCC1NC(=O)c1nc(Nc2ccc(F)nc2)ccc1O` (centres unmarked) [Compound P-13, N-(2,2-dimethylcyclobutyl)-6-[(6-fluoro-3-pyridyl)amino]-3-hydroxy-pyridine-2-carboxamide], the inhibition at 20 ppm in assay [2] and in assay [3] was not below 80% each time. Consider `COc1ccc(Nc2ccc(C)cc2)nc1C(=O)NCC(C)(C)C` [Compound P-141, N-(2,2-dimethylpropyl)-3-methoxy-6-(4-methylanilino)pyridine-2-carboxamide], for which the inhibition at 20 ppm in assay [2] is not below 80%. The same measure, in the same setting: then `COc1ccc(Nc2ccc3cnn(Cc4ccccc4)c3c2)nc1C(=O)NC(C)(C)C` [Compound P-165, 6-[(1-benzylindazol-6-yl)amino]-N-tert-butyl-3-methoxy-pyridine-2-carboxamide], with not below 80%. With `CC1(C)CCC1NC(=O)c1nc(Nc2ccnc(Cl)c2)ccc1O` (centres unmarked) [Compound P-14, 6-[(2-chloro-4-pyridyl)amino]-N-(2,2-dimethylcyclobutyl)-3-hydroxy-pyridine-2-carboxamide], the inhibition at 20 ppm in assay [2] and in assay [3] was not below 80% in each case. Take `COc1cc(Nc2cc(F)cc(F)c2)nc(C(=O)NC2CCC2(C)C)c1` (centres unmarked) [Compound P-101, 6-(3,5-difluoroanilino)-N-(2,2-dimethylcyclobutyl)-4-methoxy-pyridine-2-carboxamide]: the inhibition at 20 ppm in assay [2] was not below 80%.

In the case of `CC(C)(C)CNC(=O)c1nc(Nc2cc(F)nc(F)c2I)ccc1O` [Compound P-106, 6-[(2,6-difluoro-3-iodo-4-pyridyl)amino]-N-(2,2-dimethylpropyl)-3-hydroxy-pyridine-2-carboxamide], the inhibition at 20 ppm in assay [3] is not below 80%. On to `COc1ccc(Nc2cnsc2)nc1C(=O)NCc1cccc2c1OC(F)(F)O2` [Compound P-82, N-[(2,2-difluoro-1,3-benzodioxol-4-yl)methyl]-6-(isothiazol-4-ylamino)-3-methoxy-pyridine-2-carboxamide], for which the inhibition at 20 ppm in assay [2] and in assay [3] was not below 80% throughout.

For the molecule `COc1ccc(Nc2cc(F)cc(F)c2)nc1C(=O)NCC1(c2ccc(C(F)(F)F)cn2)CC1` [Compound P-72, 6-(3,5-difluoroanilino)-3-methoxy-N-[[1-[5-(trifluoromethyl)-2-pyridyl]cyclopropyl]methyl]pyridine-2-carboxamide], the inhibition at 20 ppm in assay [2] was not below 80%. On the same count and under the same terms, then `COc1ccc(Nc2cnsc2)nc1C(=O)NCC1(C)CCOC2(CCC2)C1` (centres unmarked) [Compound P-84, 6-(isothiazol-4-ylamino)-3-methoxy-N-[(8-methyl-5-oxaspiro[3.5]nonan-8-yl)methyl]pyridine-2-carboxamide], with not below 80%.

Turning to `COc1ccc(Nc2ccc(Cl)c(C)c2)nc1C(=O)NC(C)(C)C` [Compound P-158, N-tert-butyl-6-(4-chloro-3-methyl-anilino)-3-methoxy-pyridine-2-carboxamide], the inhibition at 20 ppm in assay [2] was not below 80%.

For the molecule `CC1(C)CCC1NC(=O)c1nc(Nc2cncc(F)c2)ccc1O` (centres unmarked) [Compound P-12, N-(2,2-dimethylcyclobutyl)-6-[(5-fluoro-3-pyridyl)amino]-3-hydroxy-pyridine-2-carboxamide], the inhibition at 20 ppm in assay [3] was not below 80%. Turning to `COCC(=O)Oc1ccc(N(C(=O)COC)c2cc(F)cc(F)c2)nc1C(=O)NC1CCC1(C)C` (centres unmarked) [Compound P-24, [6-(3,5-difluoro-N-(2-methoxyacetyl)anilino)-2-[(2,2-dimethylcyclobutyl)carbamoyl]-3-pyridyl] 2-methoxyacetate], in assay [2], the inhibition at 20 ppm is not below 80%.

For the molecule `COC(=O)N(c1cc(F)cc(F)c1)c1ccc(OC)c(C(=O)NC2CCC2(C)C)n1` (centres unmarked) [Compound P-191, methyl N-(3,5-difluorophenyl)-N-[6-[(2,2-dimethylcyclobutyl)carbamoyl]-5-methoxy-2-pyridyl]carbamate], the inhibition at 20 ppm in assay [1] and in assay [2] was not below 80% each time.

`COc1ccc(Nc2cc(F)cc(F)c2)nc1C(=O)NCc1cccc2c1OC(F)(F)O2` [Compound P-58, 6-(3,5-difluoroanilino)-N-[(2,2-difluoro-1,3-benzodioxol-4-yl)methyl]-3-methoxy-pyridine-2-carboxamide]: the inhibition at 20 ppm in assay [1] and in assay [2] was not below 80% each time.

Take `COc1ccc(Nc2cncc(C(F)(F)F)c2)nc1C(=O)NC(C)(C)C` [Compound P-163, N-tert-butyl-3-methoxy-6-[[5-(trifluoromethyl)-3-pyridyl]amino]pyridine-2-carboxamide]: the inhibition at 20 ppm in assay [2] is not below 80%. On to `COc1ccc(Nc2cc(F)cc(F)c2)nc1C(=O)NCc1cc(C(F)(F)F)cc(C(F)(F)F)c1` [Compound P-115, N-[[3,5-bis(trifluoromethyl)phenyl]methyl]-6-(3,5-difluoroanilino)-3-methoxy-pyridine-2-carboxamide], for which the inhibition at 20 ppm in assay [1] is not below 80%. Turning to `COc1ccc(Nc2cnsc2)nc1C(=O)NCc1ccc(Oc2ccccc2)cc1` [Compound P-81, 6-(isothiazol-4-ylamino)-3-methoxy-N-[(4-phenoxyphenyl)methyl]pyridine-2-carboxamide], the inhibition at 20 ppm in assay [2] and in assay [3] was not below 80% throughout.

As to `COc1ccc(Nc2ccc(Cl)c(Cl)c2)nc1C(=O)NC(C)(C)C` [Compound P-149, N-tert-butyl-6-(3,4-dichloroanilino)-3-methoxy-pyridine-2-carboxamide], the inhibition at 20 ppm in assay [2] is not below 80%.

`CC(C)(C)CNC(=O)c1nc(Nc2cc(F)nc(F)c2)ccc1O` [Compound P-100, 6-[(2,6-difluoro-4-pyridyl)amino]-N-(2,2-dimethylpropyl)-3-hydroxy-pyridine-2-carboxamide]: the inhibition at 20 ppm in assay [2] is not below 80%. On to `CC1(C)CCC1NC(=O)c1nc(Nc2cncnc2)ccc1O` (centres unmarked) [Compound P-15, N-(2,2-dimethylcyclobutyl)-3-hydroxy-6-(pyrimidin-5-ylamino)pyridine-2-carboxamide], for which the inhibition at 20 ppm in assay [3] was not below 80%. Turning to `COc1ccc(Nc2cc(Cl)cc(Cl)c2)nc1C(=O)NCC(C)(C)C` [Compound P-130, 6-(3,5-dichloroanilino)-N-(2,2-dimethylpropyl)-3-methoxy-pyridine-2-carboxamide], the inhibition at 20 ppm in assay [1] and in assay [2] was not below 80% in each case.

On to `COc1ccc(Nc2ccc(C)cc2)nc1C(=O)NC(C)(C)C` [Compound P-161, N-tert-butyl-3-methoxy-6-(4-methylanilino)pyridine-2-carboxamide], for which, in assay [2], the inhibition at 20 ppm is not below 80%. Regarding `COc1ccc(Nc2ccc(C(F)(F)F)c(F)c2)nc1C(=O)NC(C)(C)C` [Compound P-154, N-tert-butyl-6-[3-fluoro-4-(trifluoromethyl)anilino]-3-methoxy-pyridine-2-carboxamide], the inhibition at 20 ppm in assay [2] is not below 80%. Turning to `CC1(C)CCC1NC(=O)c1nc(Nc2ccc3c(c2)OCO3)ccc1O` (centres unmarked) [Compound P-17, 6-(1,3-benzodioxo1-5-ylamino)-N-(2,2-dimethylcyclobutyl)-3-hydroxy-pyridine-2-carboxamide], the inhibition at 20 ppm in assay [3] was not below 80%. Turning to `COc1ccc(Nc2cc(F)c(Cl)c(F)c2)nc1C(=O)NCC(C)(C)C` [Compound P-135, 6-(4-chloro-3,5-difluoro-anilino)-N-(2,2-dimethylpropyl)-3-methoxy-pyridine-2-carboxamide], the inhibition at 20 ppm in assay [1] is not below 80%.

Consider `COc1ccc(Nc2cc(F)cc(F)c2)nc1C(=O)NC1CCN(S(=O)(=O)C(C)C)CC1` [Compound P-77, 6-(3,5-difluoroanilino)-N-(1-isopropylsulfonyl-4-piperidyl)-3-methoxy-pyridine-2-carboxamide], for which the inhibition at 20 ppm in assay [2] was not below 80%. Take `COc1ccc(Nc2cc(F)cc(F)c2)nc1C(=O)NCC#CC(C)(C)C` [Compound P-28, 6-(3,5-difluoroanilino)-N-(4,4-dimethylpent-2-ynyl)-3-methoxy-pyridine-2-carboxamide]: the inhibition at 20 ppm in assay [1] was not below 80%.

`COc1ccc(Nc2cnsc2)nc1C(=O)NCC#CC(C)(C)C` [Compound P-34, N-(4,4-dimethylpent-2-ynyl)-6-(isothiazol-4-ylamino)-3-methoxy-pyridine-2-carboxamide]: the inhibition at 20 ppm in assay [1] is not below 80%.

Take `COc1ccc(Nc2nccs2)nc1C(=O)NC1CCC1(C)C` (centres unmarked) [Compound P-5, N-(2,2-dimethylcyclobutyl)-3-methoxy-6-(thiazol-2-ylamino)pyridine-2-carboxamide]: in assay [3], the inhibition at 20 ppm is not below 80%.

These data come from patent US12458021B2, “Microbiocidal derivatives” (SYNGENTA CROP PROTECTION AG, priority 2019, dated 2025).
